# Test results reported in patent publication US6696484B2, “Method and compositions for regulation of 5-alpha reductase activity” (University of Chicago Office of Technology and Intellectual …, priority 1997, dated 2004).
# “And” between values parts separate entries of the source, which are not always exact repeats. Equal values may be shown once. Read-outs that look alike come from different tables or passages of the source.
# Legend:
# [1] = system: hamster flank organ; assay: DHT-stimulated growth of the pigmented macules of hamster flank organs; type: in vivo, Syrian golden hamsters; conditions: 0.5 μg DHT + 1 mg compound topically daily, 18 days; for Pigmented macule area: mean±SEM
# Description: Prepubertal male Syrian golden hamsters, castrated at 4 weeks of age, were obtained from Harlan Sprague-Dawley Co. (Madison, Wis.). Bilateral orchiectomy was performed under anesthesia. The hamsters were housed individually in plastic cages and had free access to Purina rodent chow and water, and were maintained on a 12-h light/12-h dark cycle. Hamsters were used 1-2 weeks after castration and were divided into groups of 4-6 or 9-11 animals. Hair on the lower back of each animal was shaved weekly with an electric hair clipper to expose the flank organs. A treatment solution (5 μl with ethanol as vehicle) was applied topically to the flank organ once a day using a Pipetteman and a polypropylene disposable tip. The treatment solution contained either (a) ethanol alone, (b) an androgen (testosterone or DHT), (c) a test compound, or (d) a combination of an androgen and a test compound. For each hamster, one flank organ was treated while the other organ was not treated. The surface of the flank organ was wiped with an alcohol pad to remove residual compound before each treatment. At the end of each experiment (18 days), animals were killed by CO2 asphyxiation or an intraperitoneal injection of […]. Flank organs from both the treated and untreated sides were examined 1 day after the last treatment by the methods described below. The body weight of each animal was recorded before and after treatment. Experiments were repeated at least twice to assure reproducibility. The “Guide for the care and use of laboratory animals” (NIH publication no. 85-28, revised 1988) and the regulations of the U.S. Department of Agriculture were followed throughout the experiments.
# In this study, the growth of the flank organ was determined by measuring the length of the long axis and the short axis of the pigmented spot (pigmented macule) with a caliper with a digital display (Digimatic; Mitutoyo Corporation, Japan). The surface area (in millimeters squared) of the spot was calculated as the product of the long axis and the short axis (Gomez and Frost 1975). The areas of the pigmented spots after treatment with ethanol alone or with test compound (in ethanol) alone were less than 10% of the areas of the pigmented spots after treatment with testosterone alone. These values were deducted from the experimental values and are compared in Tables 8-10. For each experiment, the means and standard error of the means (SEM) of the areas of the untreated and treated macules were computed separately for each treatment group. Within each experiment, an overall F-test (one way ANOVA) was used to test the null hypothesis that the mean sizes of the treated macules were the same in all groups, and Dunnett's multiple range test was used to examine differences between the treatment groups (i.e., green tea catechin+androgen, fatty acid+androgen, EGC derivative+androgen, or fatty acid derivative+androgen) and the control group (androgen treatment only). The Mann-Whitney test was used to examine differences between DHT-treated and the DHT and EGCG-treated groups. P-values <0.05 were taken as indicating statistical significance in all tests (Hochberg and Tamhane 1987).
# Each group comprised four to six castrated male hamsters. At the end of the treatment period, the areas of the pigmented macules were determined and are presented as means±SEM in Table 8.
# Each group comprised four to six castrated male hamsters. At the end of the treatment period, the areas of the pigmented macules were determined and are expressed as means±SEM as shown in Table 10.
# [2] = target: 5α-reductase; assay: In vitro enzyme assay of 5α-reductase referred to in the discussion; type: biochemical; conditions: Hiipakka and Liao, unpublished results
# [3] = system: hamster flank organ; assay: Testosterone-stimulated growth of the pigmented macules of hamster flank organs; type: in vivo, Syrian golden hamsters; conditions: for Inhibition (percent decrease in macule area vs androgen-treated macules) / Pigmented macule area / Pigmented macule area, androgen alone (control): 18 days; for Pigmented macule area / Pigmented macule area, androgen alone (control): mean±SEM; for Pigmented macule area, androgen alone (control): 0.5 μg testosterone alone topically daily;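 on all read-outs here: prepubertal Syrian golden hamsters castrated at 4 weeks, ethanol vehicle on one flank organ, macule long and short axes gauged by caliper 1 day after final dose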
# [4] = system: 5α-reductase; assay: Whole-cell 5α-reductase assay, isozyme not given; type: cell-based, human; conditions: isozyme not stated
# From the text: Intact cells containing 5α-reductase, their microsomes, or nuclear preparations can also be used to screen 5α-reductase inhibitors.
# [5] = system: 5α-reductase; assay: Cell-free 5α-reductase assay, isozyme not given; type: biochemical, human; conditions: isozyme not stated
# [6] = system: 5α-reductase; conditions: Liao and Hiipakka 1995, cited from earlier work; for activity against 5α-reductase, in vitro enzyme assay: at 200 μM; for IC50: read-out: IC50, 5α-reductase, in vitro enzyme assay
# [7] = target: T1, type 2 human 5α-reductase (Homo sapiens, UniProt P31213); assay: Cell-free enzymatic assay of 5α-reductase (testosterone to DHT), type 2; type: biochemical; parameters: expressed in transfected cells; host or cells: rat 1A cells infected with pMV7 retrovirus and selected with G418; microsomes for the cell-free assay
# T1 sequence (P31213 1-254): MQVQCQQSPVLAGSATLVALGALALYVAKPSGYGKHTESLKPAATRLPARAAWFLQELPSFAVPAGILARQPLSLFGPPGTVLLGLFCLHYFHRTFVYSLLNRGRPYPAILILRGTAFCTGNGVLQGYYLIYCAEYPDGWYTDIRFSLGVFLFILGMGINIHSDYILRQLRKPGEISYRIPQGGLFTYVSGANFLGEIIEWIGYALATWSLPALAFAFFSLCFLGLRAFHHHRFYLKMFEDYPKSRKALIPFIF
# [8] = Stability (half-life, oxidation or hydrolysis) in culture medium, buffers and solutions; type: physicochemical
# From the text: These green tea catechins had little inhibitory activity against 5α-reductase in whole cells. The lack of activity in whole cells may be due to an inability of these catechins to cross the cell membrane or to enzymatic or non-enzymatic changes in the structure of these catechins in assays using whole-cell cultures.
# Active 5α-reductase inhibitors shown in Tables 1-7 are polyphenols or their derivatives and are easily oxidized or hydrolyzed within several hours to several days, especially in the presence of air or oxygen and at a pH above 7.0. […] More than 80% of the oxidation of hydrolysis can be prevented by the addition of an inorganic acid, such as hydrochloric acid, sulfuric acid, or phosphoric acid, or an organic acid, such as citric acid or acetic acid.
# [9] = target: T2, type 1 human 5α-reductase (Homo sapiens, UniProt P18405); assay: Cell-free enzymatic assay of 5α-reductase (testosterone to DHT), type 1
# T2 sequence (P18405 1-259): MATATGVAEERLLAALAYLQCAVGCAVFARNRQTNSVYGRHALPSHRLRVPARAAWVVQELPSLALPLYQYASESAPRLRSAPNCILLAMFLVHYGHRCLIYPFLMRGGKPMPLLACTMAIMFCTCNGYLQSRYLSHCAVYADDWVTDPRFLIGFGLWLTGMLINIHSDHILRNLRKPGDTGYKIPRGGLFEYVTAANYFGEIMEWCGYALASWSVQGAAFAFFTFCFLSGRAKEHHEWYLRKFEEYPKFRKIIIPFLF
# [10] = system: MCF-7 tumors; assay: Growth of MCF-7 tumors in female nude mice; type: in vivo, BALB/c athymic (nude) mice
# [11] = target: T3, 5α-reductase type 2 isozyme (Homo sapiens, UniProt P31213); conditions: cited from earlier work
# T3 sequence (P31213 1-254): T1 sequence (P31213 1-254)
# [12] = system: LNCaP 104-S tumors; assay: Growth of LNCaP 104-S tumors in nude mice; type: in vivo, BALB/c athymic (nude) mice; conditions: finasteride treatment, normal nude mice, within 4 weeks
# [13] = system: LNCaP 104-R2 tumors; assay: Growth of LNCaP 104-R2 tumors in castrated male nude mice; type: in vivo, BALB/c athymic (nude) mice; conditions: finasteride (2.5 mg) pellets at 7th week in mice with TP since 4th week, from 84±15 (SE) mm^3
# [14] = target: T1, type 2 human 5α-reductase; assay: Whole-cell assay of 5α-reductase, type 2; type: cell-based; parameters: expressed in transfected cells; host or cells: rat 1A cells infected with pMV7 retrovirus and selected with G418; intact cells for the whole-cell assay; conditions: read-out: percent inhibition of 5α-reductase activity, whole-cell assay, Type 2; 100 μM compound
# [15] = target: T4, 5α-reductase type 1 isozyme (Homo sapiens, UniProt P18405); conditions: read-out: Km for testosterone, type 1 isozyme; background statement; cited from earlier work
# T4 sequence (P18405 1-259): T2 sequence (P18405 1-259)
# [16] = 0.5 μg testosterone + 1 mg compound topically daily
# [17] = 0.5 μg testosterone + 1 mg compound topically daily, castrated male hamsters
# [18] = 0.5 μg testosterone + 2 mg compound topically daily
# [19] = cell-free assay, double-reciprocal plots
smiles,measurement,setting,value
O=C1c2ccccc2C(=O)c2c1ccc(O)c2O [Alizarin],Inhibition (percent decrease in macule area vs androgen-treated macules),[1],27%
same,Pigmented macule area,[1],10.00 ± 0.43 mm^2
same,IC50,[2],5 to 10 µM
same,Inhibition (percent decrease in macule area vs androgen-treated macules),[3]; [16],87%
same,Pigmented macule area,[3]; [17],2.40 ± 0.47 mm^2
"Oc1ccccc1O [Catechol, 1,2-dihydroxybenzene]",inhibitory activity in the whole-cell assay,[4],weak inhibitory activity
same,inhibitory activity in the cell-free assay,[5],weak inhibitory activity
"Oc1cc(O)c2c(c1)O[C@H](c1ccc(O)c(O)c1)[C@H](O)C2 [EC, epicatechin]","activity against 5α-reductase, in vitro enzyme assay",[6],not active
same,Inhibition (percent decrease in macule area vs androgen-treated macules),[3]; [16],37%
same,Pigmented macule area,[3]; [17],8.67 ± 1.08 mm^2
"O=C(O[C@@H]1Cc2c(O)cc(O)cc2O[C@@H]1c1ccc(O)c(O)c1)c1cc(O)c(O)c(O)c1 [ECG, epicatechin gallate]",IC50,[6],10 to 20 µM
same,IC50,[7],69 µM
same,Inhibition (percent decrease in macule area vs androgen-treated macules),[3]; [16],59%
same,Pigmented macule area,[3]; [17],5.75 ± 0.57 mm^2
"Oc1cc(O)c2c(c1)O[C@H](c1cc(O)c(O)c(O)c1)[C@H](O)C2 [EGC, epigallocatechin]","activity against 5α-reductase, in vitro enzyme assay",[6],not active
same,Pigmented macule area,[3]; [17],10.75 ± 0.87 mm^2 and 5.50 ± 0.65 mm^2
"O=C(O[C@@H]1Cc2c(O)cc(O)cc2O[C@@H]1c1cc(O)c(O)c(O)c1)c1cc(O)c(O)c(O)c1 [EGCG, epigallocatechin gallate]",IC50,[6],10 to 20 µM
same,Inhibition (percent decrease in macule area vs androgen-treated macules),[1],97%
same,Pigmented macule area,[1],0.50 ± 0.26 mm^2
same,Inhibition (percent decrease in macule area vs androgen-treated macules),[3]; [16],40% and 64%
same,Pigmented macule area,[3]; [17],8.25 ± 1.43 mm^2 and 6.25 ± 0.82 mm^2
same,Inhibition (percent decrease in macule area vs androgen-treated macules),[3]; [18],60%
same,Pigmented macule area,[3]; [18],5.62 ± 0.75 mm^2
same,half-life in culture medium,"[8]; culture medium used for whole-cell assays (pH 7.5), mean±SEM, N=3",9.5 ± 0.5 min
same,"difference in stability, phosphate buffer vs culture medium",[8]; pH 7.0 vs pH 7.5,8 fold
same,half-life in phosphate buffered saline,[8]; pH 7.5,21.2 ± 2.0 min
same,half-life in phosphate buffer,"[8]; phosphate buffer used for cell-free assays (pH 7.0), mean±SEM, N=3",74.7 ± 6.4 min
same,reversibility of inhibition after pelleting and resuspending microsomes,[9]; 100 μM EGCG,could not be reversed
same,mode of inhibition with respect to the substrate NADPH,[9]; [19],competitive inhibitor
same,mode of inhibition with respect to the substrate testosterone,[9]; [19],non-competitive inhibitor
CC(C)(C)NC(=O)[C@H]1CC[C@H]2[C@@H]3CC[C@H]4NC(=O)C=C[C@]4(C)[C@H]3CC[C@]12C [Finasteride],effect on growth of MCF-7 tumors,[10],did not affect
same,affinity for isozyme 2 relative to isozyme 1,"[11]; competitive inhibitor, Russell and Wilson, 1994",30 fold
same,reduction of LNCaP 104-S tumor size,[12],45%
same,LNCaP 104-R2 tumor size within 4 weeks after finasteride implantation,[13],593±144 mm^3
CCCCC/C=C\C/C=C\C/C=C\CCCCC(=O)OC [Methyl ester of γ-linolenic acid],IC50,[4],> 100 µM
same,inhibitory activity in the whole-cell assay,[4],little activity
same,IC50,[5],> 100 µM
"Oc1cccc(O)c1O [Pyrogallol, 1,2,3-trihydroxybenzene]",inhibitory activity in the whole-cell assay,[4],weak inhibitory activity
same,inhibitory activity in the cell-free assay,[5],weak inhibitory activity
same,inhibition at 100 µM,[14],15%
"C[C@]12CC[C@H]3[C@@H](CCC4=CC(=O)CC[C@@]43C)[C@@H]1CC[C@@H]2O [T, testosterone, reference compound]",Km,"[11]; read-out: Km for testosterone, type 2 isozyme, background statement",< 0.01 µM
same,Km,[15],> 1 µM
same,"Pigmented macule area, androgen alone (control)",[3],13.83 ± 1.43 mm^2 and 17.40 ± 1.93 mm^2 and 18.65 ± 0.69 mm^2
same,"Pigmented macule area, androgen alone (control)",[3]; listed as testosterone,15-20 mm^2
same,stimulation of flank organ growth relative to the maximum stimulation,[3]; 0.5 μg testosterone per flank organ per day,50-70%
CCCCC/C=C\C/C=C\C/C=C\CCCCC(=O)O[C@H]1CC[C@@]2(C)C(=CC[C@H]3[C@@H]4CC[C@H]([C@H](C)CCCC(C)C)[C@@]4(C)CC[C@@H]32)C1 [cholesterol ester of γ-linolenic acid],IC50,[4],> 100 µM
same,inhibitory activity in the whole-cell assay,[4],little activity
same,IC50,[5],> 100 µM
"O=C(O)c1cc(O)c(O)c(O)c1 [gallic acid, 3,4,5-trihydroxybenzoic acid]",inhibitory activity in the whole-cell assay,[4],weak inhibitory activity
same,inhibitory activity in the cell-free assay,[5],weak inhibitory activity
